Experimental data from patent US5541232A, “Treatment of multidrug resistant diseases” (Chemex Pharmaceuticals, Inc., priority 1994, dated 1996).
Where two headings read alike, the source gives them in different places.

Legend:
human cancer patients = details: cited from earlier work
Lung (LX-1) cancer cells = assay: in vitro cytotoxicity anti tumor activity; format: cell-based; details: 1 h; One Hour Pulse Treatment; read-out: IC50
[1] = test system: multidrug resistant tumor cells; assay: effects on vincristine (VBL substituted by vincristine in Example 3); format: cell-based
Excerpt: In accordance with the invention VBL can be substituted by vincristine in Example 3.

[2] = test system: MCF7/0 human breast adenocarcinoma cells; assay: flow cytometry P-glycoprotein function assay of doxorubicin efflux, MCF7/0 (doxorubicin sensitive); format: cell-based
Method: The following tests were preformed to determine the effect of NDGA on efflux of doxorubicin (hereinafter sometimes referred to as DOX) for doxorubicin sensitive MCF7/0 and doxorubicin resistant MCF7/ADR human breast adenocarcinoma cells in vitro.
The cells were exposed to 50 μg/ml NDGA for 24 hrs prior to loading with DOX (doxorubicin) at 37° C. […] PBS. Flow analysis of cell efflux of DOX was collected over 30 minutes using the time parameter.
Procedure for P-Glycoprotein (PGP) Function Assay of Doxorubicin Efflux is shown hereunder.
1. […] Store at room temperature.
2. Doxorubicin (GFW=580) Make a solution of doxorubicin to contain 10 μg/ml. Store frozen at 0° C.
4. NDGA (MW=302.36) Make a solution of NDGA to contain 50 μg/ml. Store frozen at 0° C.
5. MCF7/0 (Doxorubicin sensitive) and MCF7/ADR (Doxorubicin resistant), human breast adenocarcinoma cell lines.
1. Make up 2×10^6 cells per ml in PBS. Expose 1 ml of cells to 50 μg of NDGA for 24 hrs at 37° C. prior to loading with Doxorubicin.
2. Add 1 ml of 10 μg/ml doxorubicin, mix and divide into two aliquots.
4. Incubate both tubes at 37° C. for 30 minutes.
5. Centrifuge the tubes at 37° C. for 5 minutes on a fast spin to pellet cells. Resuspend in 1 ml of buffer.
6. Run immediately on the flow cytometer. Excitation 488 nm, emission 560-600 nm. Collect forward and 90° side scatter and PMT4 linear scale. Collect 10,000-50,000 events and calculate the mean channel fluorescence (MCF) for PMT4.
7. Run both samples as close together as possible, and avoid prolonged exposure to room temperature.

WI-38 Lung Fibroblasts = assay: in vitro cytotoxicity, normal cells; format: cell-based; details: Homo sapiens, WI-38, 1 h; One Hour Pulse Treatment; read-out: IC50
DLD-1 Colon cancer cells = assay: in vitro cytotoxicity anti tumor activity; format: cell-based; details: Homo sapiens, DLD-1, 1 h; One Hour Pulse Treatment; read-out: IC50
[3] = test system: Lung (NCI-H23) cancer cells; assay: in vitro cytotoxicity anti tumor activity; format: cell-based; details: Homo sapiens, read-out: IC50
mammals = details: in vivo; cited from earlier work
[4] = test system: Detroit 551 Skin Fibroblasts; assay: in vitro cytotoxicity, normal cells; format: cell-based; details: Homo sapiens, read-out: IC50
[5] = test system: KB-3-1 human cervical carcinoma cells; assay: efflux of VBL, KB-3-1; format: cell-based; details: 50 μM masoprocol
Method: A further test was conducted to show the effect of masoprocol on the efflux of VBL from cells. Cells were incubated with [^3 H]VBL with or without 50 μM masoprocol for 2 hours. The medium was then replaced with drug-free medium. After incubation for various times, the amount of VBL remaining in the cells was determined as described above. The data was presented in terms of the percentage of VBL remaining at various efflux times compared to VBL in cells with an efflux time of zero. In FIGS. 3a and 3b, efflux is expressed as pmol VBL. In FIGS. 3c and 3d, efflux is expressed as percentage of VBL levels at time zero.

For `C[C@H](Cc1ccc(O)c(O)c1)[C@@H](C)Cc1ccc(O)c(O)c1` [Masoprocol, meso-1,4-bis (3,4-dihydroxyphenyl)-2,3-dimethylbutane], which “stimulation of tumor cell growth” value (human cancer patients; in some cases) is on record?
Its value is “in some cases caused stimulation of tumor cell growth”.

And the “effectiveness as anticancer agent” value (human cancer patients; ingested tea made from creosote bush or pure NDGA)?
Its value is “neither NDGA nor the tea were effective anticancer agents”.

And the IC50 (Lung (LX-1) cancer cells)?
Its IC50 is 18 µM.

What about the “effects on vincristine compared with VBL” value [1] of the same compound?
Its value is “comparative effects”.

What about the activation at 50 µg/mL ([2]; Homo sapiens, MCF7, 24 h, read-out: % DOX increase w/NDGA) of the same compound?
The activation at 50 µg/mL was 44.5%.

What about the “DOX loading / retention / accumulation (in words)” value ([2]; sensitive cells) of the same compound?
Its value is “loading more DOX after NDGA treatment than controls or verapamil treated cells”.

What about the IC50 (WI-38 Lung Fibroblasts) of the same compound?
The IC50 was 159 µM.

And the IC50 (DLD-1 Colon cancer cells)?
The IC50 was 124 µM.

And the IC50 ([3]; NCI-H23, 1 h, One Hour Pulse Treatment)?
Its IC50 is 172 µM.

And the IC50 ([3]; NCI-H23, Continuous Drug Exposure, observation at 70 hours)?
Its IC50 is 0.08 µM.

What about the “retarding senescence or aging” value (mammals) of the same compound?
The value was “having efficacy in retarding senescence or aging in mammals”.

And the IC50 ([4]; Detroit 551, 1 h, One Hour Pulse Treatment)?
Its IC50 is 62.7 µM.

And the IC50 ([4]; Detroit 551, Continuous Drug Exposure, observation at 70 hours)?
Its IC50 is 312 µM.

What about the “modulation of VBL efflux” value [5] of the same compound?
Its value is “does not modulate VBL efflux”.

And the “VBL levels at efflux time zero” value ([5]; 2 hours, FIG. 3b)?
Its value is “higher in masoprocol-treated cells”.

And the “percent of VBL retained at various efflux time points” value ([5]; FIG. 3d)?
Its value is “not affected by masoprocol treatment”.

What about the “modulation of VBL efflux” value ([5]; listed as masoprocol) of the same compound?
Its value is “does not influence the rate of efflux of VBL”.
